From patent US10865191B2, “Heterocyclic compounds useful as modulators of TNF alpha” (BRISTOL-MYERS SQUIBB COMPANY, priority 2015, dated 2020)

The compounds below were run against TNFα (Homo sapiens, UniProt P01375) (assay: TNF induced HEK-Blue assay (NF-kB-driven secreted alkaline phosphatase reporter)). Details: TNF induced HEK-Blue assay IC50 value, TNFα 0.5 ng/mL, HEK-Blue-CD40L cells, 18 h.
Type: cell-based
In short: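 HEK-Blue-CD40L cells (NF-kB-driven SEAP reporter), 20,000/well, added after 30 min pre-incubation of compound (0.004–25 μM final) with TNFα 0.5 ng/mL final at 37 °C; 18 h incubation. SEAP read with QUANTI-Blue at 620 nm; IC50 from 4-parameter logistic fit, normalized to unstimulated and stimulated DMSO controls.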

TNFα, sequence (P01375 77-233 limits assumed): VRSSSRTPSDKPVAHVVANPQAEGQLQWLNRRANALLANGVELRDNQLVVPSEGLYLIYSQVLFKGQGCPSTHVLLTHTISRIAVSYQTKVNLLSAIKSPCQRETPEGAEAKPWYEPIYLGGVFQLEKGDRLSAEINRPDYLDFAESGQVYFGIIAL

Row | IC50 | SMILES
1 | 1000 to 10000 nM | CC(Nc1c(Cl)cnc2cc(F)c(-c3cnc(C(C)(C)O)nc3)cc12)c1ccccc1F (centres unmarked) [Example 249, 2-(5-(3-chloro-7-fluoro-4-((1-(2-fluorophenyl)ethyl)amino)quinolin-6-yl)pyrimidin-2-yl)propan-2-ol]

Same assay, conditions: TNFα 0.5 ng/mL, HEK-Blue-CD40L cells, 18 h; read-out: TNF induced HEK-Blue assay IC50 value

Row | SMILES | IC50
2 | C[C@@H](Nc1c(Cl)cnc2ccccc12)c1cc(-c2cn(C)nc2C(F)(F)F)ccc1F [Example 472, (R)-3-chloro-N-(1-(2-fluoro-5-(1-methyl-3-(trifluoromethyl)-1H-pyrazol-4-yl)phenyl)ethyl)quinolin-4-amine] | 1000 to 10000 nM
3 | C=Cc1ccc(F)c([C@@H](Nc2c(Cl)cnc3cc(F)c(-c4cnc(C(C)(C)O)nc4)nc23)C(F)F)c1 [Example 215, (R)-2-(5-(7-chloro-8-((2,2-difluoro-1-(2-fluoro-5-vinylphenyl)ethyl)amino)-3-fluoro-1,5-naphthyridin-2-yl)pyrimidin-2-yl)propan-2-ol] | < 1000 nM
4 | CC(C)(O)c1ncc(-c2ccc3ncc(Cl)c(NC4(c5ccccc5)CC4)c3c2)cn1 [Example 161, 2-(5-(3-chloro-4-((1-phenylcyclopropyl)amino)quinolin-6-yl)pyrimidin-2-yl)propan-2-ol] | 1000 to 10000 nM
5 | Cc1nc2cc(F)c(-c3cnc(C(C)(C)O)nc3)cc2c(N[C@H](C)c2cccc(C(N)=O)c2)c1Cl [Example 394, (R)-3-(1-((3-chloro-7-fluoro-6-(2-(2-hydroxypropan-2-yl)pyrimidin-5-yl)-2-methylquinolin-4-yl)amino)ethyl)benzamide] | < 1000 nM
6 | CC(Nc1c(Cl)cnc2ccc(-c3cnc(C(C)(C)O)nc3)cc12)[C@H]1CCCNC1 (single isomer, unassigned) [Example 97] | < 1000 nM
7 | C[C@@H](Nc1c(Cl)cnc2ccccc12)c1cc(-c2cnc(N)nc2)ccc1F [Example 481, (R)—N-(1-(5-(2-aminopyrimidin-5-yl)-2-fluorophenyl)ethyl)-3-chloroquinolin-4-amine] | < 1000 nM
8 | CC(Nc1c(Cl)cnc2ccc(-c3cnc(N4CCNC(=O)C4)nc3)cc12)c1nc(C(N)=O)ccc1F (single isomer, unassigned) [Example 25, 6-(1-((3-chloro-6-(2-(3-oxopiperazin-1-yl)pyrimidin-5-yl)quinolin-4-yl)amino)ethyl)-5-fluoropicolinamide] | 1000 to 10000 nM
9 | C[C@@H](Nc1c(Cl)cnc2ccc(-c3cnc(C(C)(C)O)nc3)cc12)c1cc(-n2cccn2)ccc1F [Example 366, (R)-2-(5-(3-chloro-4-((1-(2-fluoro-5-(1H-pyrazol-1-yl)phenyl)ethyl)amino)quinolin-6-yl)pyrimidin-2-yl)propan-2-ol] | < 1000 nM

The next lines start with the values.

Row | IC50 | SMILES
10 | 10000 to 25000 nM | CC(Nc1c(Cl)cnc2ncc(-c3ccc(C(C)(C)O)cc3)cc12)c1ccccc1F (racemic) [Example 231, 2-(4-(6-chloro-5-((1-(2-fluorophenyl)ethyl)amino)-1,8-naphthyridin-3-yl)phenyl)propan-2-ol]
11 | 10000 to 25000 nM | CC(Nc1c(Cl)cnc2ccc(-c3cnc(C(C)(C)O)nc3)cc12)[C@H]1CCCNC1 (single isomer, unassigned) [Example 96]
12 | < 1000 nM | C[C@@H](Nc1c(Cl)cnc2ccc(-c3cnc([C@]4(O)CCC[C@H]4O)nc3)cc12)c1ccccc1F [Example 121, (1R,2R)-1-(5-(3-chloro-4-(((R)-1-(2-fluorophenyl)ethyl)amino)quinolin-6-yl)pyrimidin-2-yl)cyclopentane-1,2-diol]
13 | 1000 to 10000 nM | C[C@@H](Nc1c(Cl)cnc2ccc(-c3cnc(C(C)(C)O)nc3)cc12)c1cc(C2=CCN(C(=O)OC(C)(C)C)CC2)ccc1F [Example 337, tert-butyl (R)-4-(3-(1-((3-chloro-6-(2-(2-hydroxypropan-2-yl)pyrimidin-5-yl)quinolin-4-yl)amino)ethyl)-4-fluorophenyl)-3,6-dihydropyridine-1(2H)-carboxylate]
14 | 1000 to 10000 nM | Cc1nc2ccc(-c3ccc(C(C)(C)O)cc3)cc2c(NC(C)c2ccsc2)c1Cl (centres unmarked) [Example 503, 2-(4-(3-chloro-2-methyl-4-((1-(thiophen-3-yl)ethyl)amino)quinolin-6-yl)phenyl)propan-2-ol]
